# From patent US9567371B2, “Short beta-defensin-derived peptides” (Yeda Research and Development Co. Ltd., priority 2009, dated 2017)
# Peptide text beside a SMILES is read from it.
# Columns and labels:
# [1] = tested on: G2 cells and mouse BM MNC; assay: Chemotaxis assay (untreated cells migrate towards peptide in bottom chamber); assay type: cell-based; details: 1 and 10 μM peptide in bottom chamber, 4 hrs
# Method: FIGS. 9A-9B. AK-1 increases SDF-1-induced migration and chemotaxis of G2 and mouse bone marrow mononuclear cells (BM MNC). (A) G2 cells and mouse BM MNC were preincubated with 1 and 10 μM AK-1 for 3 hrs in serum free medium, washed and allowed to migrate towards SDF-1. Migrated cells were collected and calculated by flow cytometry. Percentage of migrated cells is presented as compared to untreated control taken as 100%. (B) Untreated G2 cells and mouse BM MNC were put to the upper chambers of the transwell plates and allowed to migrate towards 1 and 10 μM AK-1 present the bottom chambers of the transwell plates for 4 hrs. Percentage of migrated cells is presented as compared to untreated (UT) control taken as 100%. Data shown are the mean±SD of 2 separate experiments. *P<0.05 compared to control.
# (§1) Various cells (1×10^6/mL), untreated or pretreated with peptides for 3 hrs at 96-well flat bottom plates at 37° C. were washed, 2×10^5 cells/100 μL were added to the upper chambers of Costar 24-well transwell plates with 5 μm pore filters (Corning Inc., Corning, N.Y.) and allowed to migrate for 2-4 hrs at 37° C. (95% humidity, 5% CO2) spontaneously or towards 50 ng/mL SDF-1 (rhSDF-1, Peprotech, Rocky Hill, N.J.) in medium supplemented with 10% FCS. […] Migrated cells were collected from the lower chambers and counted using a flow cytometer. […]
# CCR5 = CCR5 membrane expression (flow cytometry); assay type: cell-based, human; details: tested cells, 3 hrs preincubation
# Method: (§2) FIGS. 10A-10C. TL-1 and cTL1 down-regulate CXCR4 expression on human cord blood CD34^+ and G2 cells. Human cord blood CD34^+ and G2 cells were incubated with 1 or 10 μM TL-1 or cyclic TL-1 for 3 hrs or left untreated (UT), washed, stained with CXCR4 and CCR5 Ab and analyzed by flow cytometry. Representative histograms from 3 separate experiments are shown. FIG. 10A—effect of TL-1 on CXCR4 expression. FIG. 10B—effect of cTL-1 on CXCR4 expression. FIG. 10C—effects of TL-1 and cTL-1 on CCR5 expression.
# (§3) Various cell types (1×10^6/mL) were pretreated with the peptides for 3 hrs as described above, washed and then stained in staining buffer (PBS supplemented with 0.5% FCS and 0.01% sodium azide) with mouse anti-human CXCR4-PE, CCR5-FITC (R&D Systems, Minneapolis, Minn.) or CD45-FITC (ImmunoQuality Products, Groningen, The Netherlands) mAbs for 30 min at 4° C. and analyzed by flow cytometry as described (Kalinkovich, A., et al., 2006). Appropriate IgG were used as the isotype controls.
# (§4) Recently, it has been shown that HBD3 could induce internalization of CXCR4 but not of CCR5 in the CEM T cells expressing both CXCR4 and CCR5 (Feng, Z. et al., 2006) implying CXCR4 specificity in HBD3 action.
# G2 cells = assay: Transwell migration towards SDF-1; assay type: cell-based, human
# Method: FIGS. 8A-8D. Effect of TL-1 and cyclic TL-1 on in vitro and in vivo cell migration. (A, C) Human CD3^+, G2, cord blood CD34^+ and peripheral blood mononuclear (PBMC) cells were preincubated with 1 and 10 μM TL-1 for 3 hrs in serum free medium, washed and allowed to migrate towards SDF-1. Migrated cells were collected and calculated by flow cytometry. Percentage of migrated cells is presented as compared to untreated (UT) control taken as 100%. (B) G2 cells were similarly preincubated with 10 μM TL-1 or cTL-1 for the indicated periods of time and percentage of migrated cells is depicted. (D) Homing assay. G2 cells were similarly preincubated with 10 μM TL-1 or cTL-1 for 3 hrs, washed and i.v. injected (10×10^6/mouse) to non-irradiated NOD/SCID mice. Percentage of G2 cells in the murine BM and spleens was determined by staining with anti-human CD45 Ab and compared with untreated (UT) cells. […]
# FIGS. 9A-9B. […] Migrated cells were collected and calculated by flow cytometry. […]
# as §1, with “C.” for “C. (95% humidity, 5% CO2) spontaneously or towards 50 ng/mL SDF-1 (rhSDF-1, Peprotech, Rocky Hill, N.J.) in medium supplemented with 10% FCS.”
# CD45 = CD45 membrane expression (flow cytometry); assay type: cell-based, human; details: tested cells, 3 hrs preincubation
# Method: as §3, §4
# CXCR4 = molecular target: T1, CXCR4 (Homo sapiens, UniProt P61073); assay: CXCR4 membrane expression (flow cytometry); assay type: cell-based; details: human cord blood CD34+ cells, 1 or 10 μM, 3 hrs
# T1 construct: endogenous in cells; host or cells: human cord blood CD34+ cells, human pre-B-ALL G2 cells, U937 and HL-60 cells
# T1 sequence (P61073 whole entry): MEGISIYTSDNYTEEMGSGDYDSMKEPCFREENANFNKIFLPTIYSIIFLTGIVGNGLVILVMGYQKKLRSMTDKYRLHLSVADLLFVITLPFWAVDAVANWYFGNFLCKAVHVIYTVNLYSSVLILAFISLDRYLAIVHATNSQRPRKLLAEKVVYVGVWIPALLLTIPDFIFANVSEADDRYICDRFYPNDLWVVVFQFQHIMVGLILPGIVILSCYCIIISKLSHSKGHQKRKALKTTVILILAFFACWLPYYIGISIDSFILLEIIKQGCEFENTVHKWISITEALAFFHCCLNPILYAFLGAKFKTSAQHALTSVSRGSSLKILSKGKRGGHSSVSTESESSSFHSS
# Method: as §2, §3, §4
# SDF-1 = SDF-1 plasma levels in injected mice (ELISA); assay type: in vivo, mouse; details: 5 mg/kg s.c., compared with mice injected with PBS
# Method: SDF-1 levels in tested samples were determined by ELISA as described (Kalinkovich, A., et al., 2006) where the K15C monoclonal antibodies (mAb, INRA, Paris, France) recognizing the first three amino acids of SDF-1 were utilized as a capture Ab (10 μg/mL) in order to measure levels of intact, non-cleaved SDF-1. Levels of basic FGF (bFGF) and HGF in tested samples were determined by using corresponding capture mAbs and polyclonal biotynilated Abs (R&D Systems) as recommended by the manufacturer. In order to examine SDF-1, bFGF and HGF levels in cell supernatants, MS-5, MBA-15 and MG-63 cells were seeded in 24-well Costar wells and cultivated in RPMI 1640 or αMEM Eagle medium, respectively, with 10% FCS. When the cells reached confluence, the medium was changed to serum free medium and cells were cultivated for additional 6 hrs in the presence of various concentrations of the peptides. Medium samples were collected and centrifuged 10 min at 6000×g at 4° C. to remove cell debris. Supernatants were collected and kept at −70° C. until tested.
smiles,measurement,setting,value
"N=C(N)NCCC[C@@H]1NC(=O)CNC(=O)[C@H](CCCNC(=N)N)NC(=O)[C@H](CCCCN)NC(=O)[C@H](CCCCN)NC(=O)[C@H](CCCNC(=N)N)NC(=O)[C@H](CCCNC(=N)N)NC(=O)[C@H](CS)NC(=O)[C@H](CS)NC(=O)[C@H](CCCCN)NC1=O [cyclic TL-1, 1,10-cyclo[RGRKCCRRKK]] (cyclo(CCRRKKRGRK))",chemotaxis of untreated cells towards the peptide,[1],ineffective
same,membrane expression of CCR5,CCR5,either unaffected or slightly increased
same,SDF-1-induced migration,G2 cells; 1 μM,ineffective
same,inhibition of SDF-1-induced migration,G2 cells; 10 μM,2 fold
same,membrane expression of CD45,CD45,either unaffected or slightly increased
same,CXCR4 expression,CXCR4,decreased CXCR4 expression
same,SDF-1 plasma levels,SDF-1,did not induce increase
